Molecular target: T1, human mGluR2 receptor (Homo sapiens, UniProt Q14416)
T1 construct: expressed in transfected cells; host or cells: CHO cells (membrane preparation)
Test: [35S]GTPγS binding assay (GTPγS-PAM): positive allosteric modulation in presence of glutamate at EC25, membranes from transfected CHO cells
Type: biochemical
Details: in presence of mGluR2 agonist glutamate at predetermined EC25 concentration, averages of duplicate values of 11-concentration response curves
Description: The compounds provided in the present invention are positive allosteric modulators of mGluR2. These compounds appear to potentiate glutamate responses by binding to an allosteric site other than the glutamate binding site. The response of mGluR2 to a concentration of glutamate is increased when compounds of Formula (I) are present. Compounds of Formula (I) are expected to have their effect substantially at mGluR2 by virtue of their ability to enhance the function of the receptor. The behaviour of positive allosteric modulators tested at mGluR2 using the [^35S]GTPγS binding assay method described below and which is suitable for the identification of such compounds, and more particularly the compounds according to Formula (I), are shown in Table 4.
[^35S]GTPγS Binding Assay
The [^35S]GTPγS binding is a functional membrane-based assay used to study G-protein coupled receptor (GPCR) function whereby incorporation of a non-hydrolysable form of GTP, [^35S]GTPγS (guanosine 5′-triphosphate, labelled with […] ^35S), is measured. The G-protein o subunit catalyzes the exchange of guanosine 5′-diphosphate (GDP) by guanosine triphosphate (GTP) and on activation of the GPCR by an agonist, [^35S]GTPγS, becomes incorporated and cannot be cleaved to continue the exchange cycle (Harper (1998) Current Protocols in Pharmacology 2.6.1-10, John Wiley & Sons, Inc.). […] Here we describe the use of the [^35S]GTPγS binding assay using membranes from cells transfected with the human mGluR2 receptor and adapted from Schaffhauser et al ((2003) Molecular Pharmacology 4:798-810) for the detection of the positive allosteric modulation (PAM) properties of the compounds of this invention.
CHO-cells were cultured to pre-confluence and stimulated with 5 mM butyrate for 24 hours, prior to washing in PBS, and then collection by scraping in homogenisation buffer (50 mM Tris-HCl buffer, pH 7.4, 4° C.). Cell lysates were homogenized briefly (15 s) using an ultra-turrax homogenizer. The homogenate was centrifuged at 23 500×g for 10 minutes and the supernatant discarded. The pellet was resuspended in 5 mM Tris-HCl, pH 7.4 and centrifuged again (30 000×g, 20 min, 4° C.). The final pellet was resuspended in 50 mM HEPES, pH 7.4 and stored at −80° C. in appropriate aliquots before use. Protein concentration was determined by the Bradford method (Bio-Rad, USA) with bovine serum albumin as standard.
Measurement of mGluR2 positive allosteric modulators in membranes containing human mGluR2 was performed using frozen membranes that were thawed and briefly homogenised prior to pre-incubation in 96-well microplates (15 μg/assay well, 30 minutes, 30° C.) in assay buffer (50 mM HEPES pH 7.4, 100 mM NaCl, 3 mM MgCl2, 50 μM GDP, 10 μg/ml saponin,) with increasing concentrations of positive allosteric modulator (from 0.3 nM to 50 μM) and either a minimal pre-determined concentration of glutamate (PAM assay), or no added glutamate. For the PAM assay, membranes were pre-incubated with glutamate at EC25 concentration, i.e. a concentration that gives 25% of the maximal response glutamate, and is in accordance to published data (Pin et al. (1999) Eur. J. Pharmacol. 375:277-294). After addition of [^35S]GTPγS (0.1 nM, f.c.) to achieve a total reaction volume of 200 μl, microplates were shaken briefly and further incubated to allow [^35S]GTPγS incorporation on activation (30 minutes, 30° C.). The reaction was stopped by rapid vacuum filtration over glass-fibre filter plates (Unifilter 96-well GF/B filter plates, Perkin-Elmer, Downers Grove, USA) microplate using a 96-well plate cell harvester (Filtermate, Perkin-Elmer, USA), and then by washing three times with 300 μl of ice-cold wash buffer (Na2PO4.2H2O 10 mM, NaH2PO4.H2O 10 mM, pH=7.4). Filters were then air-dried, and 40 μl of liquid scintillation cocktail (Microscint-O) was added to each well, and membrane-bound [^35S]GTPγS was measured in a 96-well scintillation plate reader (Top-Count, Perkin-Elmer, USA). […]

T1 sequence (Q14416 19-872): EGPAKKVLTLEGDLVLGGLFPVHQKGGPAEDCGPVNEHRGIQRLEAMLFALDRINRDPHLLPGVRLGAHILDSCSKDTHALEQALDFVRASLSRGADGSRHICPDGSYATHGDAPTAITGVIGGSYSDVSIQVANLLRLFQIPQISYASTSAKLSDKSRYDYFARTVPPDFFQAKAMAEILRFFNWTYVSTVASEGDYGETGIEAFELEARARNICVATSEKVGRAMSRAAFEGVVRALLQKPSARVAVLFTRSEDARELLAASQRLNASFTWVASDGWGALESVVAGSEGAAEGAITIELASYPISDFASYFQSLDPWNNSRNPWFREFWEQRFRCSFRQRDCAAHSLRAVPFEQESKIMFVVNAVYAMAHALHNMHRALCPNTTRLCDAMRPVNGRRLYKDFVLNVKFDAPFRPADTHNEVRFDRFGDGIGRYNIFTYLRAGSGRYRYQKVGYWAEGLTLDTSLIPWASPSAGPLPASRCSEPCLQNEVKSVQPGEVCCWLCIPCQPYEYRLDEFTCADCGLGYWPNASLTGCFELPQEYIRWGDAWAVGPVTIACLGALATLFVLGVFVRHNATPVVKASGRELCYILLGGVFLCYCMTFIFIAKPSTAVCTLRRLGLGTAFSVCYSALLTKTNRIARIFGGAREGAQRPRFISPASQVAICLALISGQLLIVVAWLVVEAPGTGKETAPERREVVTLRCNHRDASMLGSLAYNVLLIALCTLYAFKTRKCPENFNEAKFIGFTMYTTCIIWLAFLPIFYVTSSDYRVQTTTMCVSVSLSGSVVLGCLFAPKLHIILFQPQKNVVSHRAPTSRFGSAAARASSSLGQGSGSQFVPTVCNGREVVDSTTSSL

GTPgS - hR2 PAM pEC50	SMILES
6.4	CCCCn1ccc(-c2ccc(Oc3ccnc(C)c3)cc2)c(C#N)c1=O [1-064, 3-cyano-1-butyl-4-[4-(2-methyl-pyridin-4-yloxy)-phenyl]-pyridine-2(1H)-one]

Same assay, conditions: in presence of mGluR2 agonist glutamate at predetermined EC25 concentration, averages of duplicate values of 11-concentration response curves, read-out: GTPgS - hR2 PAM pEC50 (converted)

SMILES	EC50 [µM]
N#Cc1c(-c2ccc(OCC3CC3)cc2F)ccn(CC2CC2)c1=O [1-003]	0.631
N#Cc1c(-c2ccc(Oc3ccnc(N4CCCC4)c3)cc2)ccn(CC2CC2)c1=O [1-005]	0.398
N#Cc1c(-c2ccc(Oc3ccnc(N4CCCCC4)c3)cc2)ccn(CC2CC2)c1=O [1-006]	0.316
CN(C)c1ccc(-c2ccn(CC3CCCCC3)c(=O)c2C#N)cc1 [1-010]	0.1
COc1ccc(-c2ccn(CC3CCCCC3)c(=O)c2C#N)cc1 [1-012]	0.398
Cc1ccccc1Cn1ccc(-c2cccs2)c(C#N)c1=O [1-015]	3.98
COc1ccc(-c2ccn(Cc3ccccc3C)c(=O)c2C#N)cc1 [1-016]	2
COc1ccc(-c2ccn(Cc3cccc(C)c3)c(=O)c2C#N)cc1 [1-017]	1
COc1ccc(-c2ccn(Cc3ccc(C)cc3)c(=O)c2C#N)cc1 [1-021]	0.631
COc1ccc(-c2ccn(Cc3ccc(F)cc3)c(=O)c2C#N)cc1 [1-022]	0.316
CC(C)Oc1ccc(-c2ccn(Cc3ccc(F)cc3)c(=O)c2C#N)cc1Cl [1-025]	0.1
COc1ccc(-c2ccn(Cc3cccc(Cl)c3)c(=O)c2C#N)cc1 [1-026]	0.501
COc1ccc(-c2ccn(Cc3ccc(Cl)cc3)c(=O)c2C#N)cc1 [1-027]	0.501
C[C@@H]1COC[C@H](C)N1Cc1ccc(-c2ccn(Cc3ccc(OC(F)(F)F)cc3)c(=O)c2C#N)cc1 [1-034]	1.26
CC1COCC(C)N1Cc1ccc(-c2ccn(Cc3ccc(OC(F)(F)F)cc3)c(=O)c2C#N)cc1 (stereo not drawn) [1-036]	0.631
N#Cc1c(-c2ccccc2)ccn(CCOc2ccccc2)c1=O [1-047]	2.51
CC(C)Oc1ccc(-c2ccn(CCOc3ccccc3)c(=O)c2C#N)cc1Cl [1-049]	0.126

SMILES	EC50 [µM]
N#Cc1c(-c2ccccc2)ccn(CCCc2ccccc2)c1=O [1-053]	5.01
CCCCn1ccc(-c2ccc(Cn3ccnc3C)cc2)c(C#N)c1=O [1-060]	1
CCCCn1ccc(-c2cccc(Oc3ccccn3)c2)c(C#N)c1=O [1-061]	6.31
CCCCn1ccc(-c2cccc(Oc3ccncc3)c2)c(C#N)c1=O [1-062]	6.31
CCCCn1ccc(-c2ccc(Oc3ccncc3)cc2F)c(C#N)c1=O [1-066]	0.501
CCCCn1ccc(-c2ccc(Oc3ncccc3C(F)(F)F)cc2)c(C#N)c1=O [1-067]	0.158
CCCCn1ccc(-c2ccc(Oc3cccc(C(F)(F)F)n3)cc2)c(C#N)c1=O [1-068]	0.251
CCCCn1ccc(-c2cccc(Oc3ccncc3C(F)(F)F)c2)c(C#N)c1=O [1-069]	2.51
CCCCn1ccc(-c2ccc(Oc3ncccc3C#N)cc2)c(C#N)c1=O [1-071]	0.631
CCCCn1ccc(-c2ccc(Oc3ccc(C#N)cn3)cc2)c(C#N)c1=O [1-072]	1.58
CCCCn1ccc(-c2ccc(Oc3ccnc(N4CCOCC4)c3)cc2)c(C#N)c1=O [1-073]	0.398
CCCCn1ccc(-c2ccc(Oc3ncccn3)cc2)c(C#N)c1=O [1-074]	5.01
CCCCn1ccc(-c2ccc(Oc3ccncn3)cc2)c(C#N)c1=O [1-075]	5.01
CCCCn1ccc(-c2ccc(Oc3cnccn3)cc2)c(C#N)c1=O [1-076]	3.98
CC(C)CCn1ccc(-c2ccco2)c(C#N)c1=O [1-081]	6.31
CC(C)CCn1ccc(-c2ccc(Cl)s2)c(C#N)c1=O [1-083]	0.2
CC(C)CCn1ccc(-c2ccc(F)cc2)c(C#N)c1=O [1-089]	3.16

The remaining lines, values ahead:

EC50 [µM]	SMILES
3.16	N#Cc1c(N[C@@H]2C[C@H]2c2ccccc2)ccn(CC2CC2)c1=O (racemic) [1-294]
2	CC(C)CCn1ccc(N[C@@H]2C[C@H]2c2ccccc2)c(C#N)c1=O (racemic) [1-304]
0.0631	CC(C)CCn1ccc(-c2ccc(Br)c(Br)c2)c(C#N)c1=O [1-092]
1	CC(C)CCn1ccc(-c2ccc(OCCO)cc2)c(C#N)c1=O [1-099]
2	CCOc1ccc(-c2ccn(CCC(C)C)c(=O)c2C#N)cc1 [1-104]
0.631	COCCCc1ccc(-c2ccn(CCC(C)C)c(=O)c2C#N)cc1 [1-106]
6.31	COc1cc(-c2ccn(CCC(C)C)c(=O)c2C#N)ccc1O [1-108]
5.01	COc1cc(-c2ccn(CCC(C)C)c(=O)c2C#N)ccc1OCCO [1-109]
0.631	COc1cc(F)c(-c2ccn(CCC(C)C)c(=O)c2C#N)c(F)c1 [1-116]
2	CC(=O)COc1ccc(-c2ccn(CCC(C)C)c(=O)c2C#N)cc1 [1-118]
0.631	CC(C)CCn1ccc(-c2ccc(OC(F)F)cc2)c(C#N)c1=O [1-119]
0.501	CC(C)CCn1ccc(-c2ccc(OCCF)c(Cl)c2)c(C#N)c1=O [1-121]
0.0501	CC(C)CCn1ccc(-c2ccc(OC3CCCC3)c(Cl)c2)c(C#N)c1=O [1-124]
5.01	COc1cc(-c2ccn(CCC(C)C)c(=O)c2C#N)ccc1OC(C)=O [1-125]
0.631	CC(=O)CCOc1ccc(-c2ccn(CCC(C)C)c(=O)c2C#N)cc1 [1-126]
2	CC(C)CCn1ccc(-c2ccc(COCC#N)cc2)c(C#N)c1=O [1-132]
0.2	CC(C)CCn1ccc(-c2ccc(OCC3CC3)cc2)c(C#N)c1=O [1-133]

EC50 [µM]	SMILES
1	CC(C)CCn1ccc(-c2ccc(OC3CCCC3)cc2)c(C#N)c1=O [1-135]
0.631	CC(C)CCn1ccc(-c2ccc(OCCC3(C)OCCO3)cc2)c(C#N)c1=O [1-136]
1	CC(C)CCn1ccc(-c2ccc(OCCOC3CCCCO3)cc2)c(C#N)c1=O (stereo not drawn) [1-137]
0.794	COc1cc(-c2ccn(CCC(C)C)c(=O)c2C#N)ccc1OCCOC1CCCCO1 (stereo not drawn) [1-138]
3.98	CC(C)CCn1ccc(-c2ccc(OCCN3CCOCC3)cc2)c(C#N)c1=O [1-139]
0.0398	CC(C)CCn1ccc(-c2ccc(Oc3ccccc3)cc2)c(C#N)c1=O [1-140]
0.0631	CC(C)CCn1ccc(-c2ccc(OCc3ccccc3)cc2)c(C#N)c1=O [1-141]
0.316	COc1cc(-c2ccn(CCC(C)C)c(=O)c2C#N)ccc1OCc1ccccc1 [1-142]
0.501	CC(C)CCn1ccc(-c2ccc(Oc3ccccn3)cc2)c(C#N)c1=O [1-154]
0.631	CC(C)CCn1ccc(-c2ccc(COc3ccncc3)cc2)c(C#N)c1=O [1-160]
0.631	CC(C)CCn1ccc(-c2ccc(Oc3ccncc3)cc2F)c(C#N)c1=O [1-161]
0.0794	CC(C)CCn1ccc(-c2ccc(OCc3ccncc3)c(Cl)c2)c(C#N)c1=O [1-165]
1.58	COc1cc(-c2ccn(CCC(C)C)c(=O)c2C#N)ccc1OCc1cccnc1 [1-166]
0.501	COc1cc(-c2ccn(CCC(C)C)c(=O)c2C#N)ccc1OCc1ccncc1 [1-167]
6.31	CC(C)CCn1ccc(-c2ccc(OCc3nnc[nH]3)cc2)c(C#N)c1=O [1-168]
0.794	CC(C)CCn1ccc(-c2ccc(N)cc2)c(C#N)c1=O [1-170]
1.58	COCCNc1ccc(-c2ccn(CCC(C)C)c(=O)c2C#N)cc1 [1-174]

Source: patent publication US9266834B2, “1, 4-disubstituted 3-cyano-pyridone derivatives and their use as positive allosteric modulators of MGLUR2-receptors” (JANSSEN PHARMACEUTICALS, INC., priority 2006, dated 2016)
